pIC50: −log10 of the molar value.
Test system: Con-NCI-H82 cell
Experiment: Cell viability (Promega CellTiter-Glo, intracellular ATP), IC50 on Con-NCI-H82 cell
Format: cell-based
Details: Homo sapiens; normal untreated NCI-H82 cell (control)
Description: (§1) The expression of NNMT protein in NCI-H82 cell was overexpressed by inserting the NNMT gene into NCI-H82 cell using a viral vector, and the NNMT protein-overexpressing NCI-H82 cell (ov-NNMT NCI-H82 cell) was obtained. The normal and untreated NCI-H82 cell (Con-NCI-H82 cell) was used as control. The expressing content of NNMT protein in the ov-NNMT NCI-H82 cell and Con-NCI-H82 cell was detected using Western Blot assay (as shown in FIG. 1), it could be seen from FIG. 1 that the NNMT protein was overexpressed in the ov-NNMT NCI-H82 cell compared with the expression level of NNMT protein in the Con-NCI-H82 cell.
(§2) The cell viability was detected using the Promega CellTiter-Glo kit which reflected cell viability by measuring intracellular ATP content. The Con-NCI-H82 cell and ov-NNMT NCI-H82 cell was cultured in 10% fetal bovine serum-containing RPMI1640 medium (+P/S).

Row | Structure (SMILES) | pIC50
1 | Cc1ccc(C(=O)C[n+]2ccc3c(c2)CCN3c2ccccc2)cc1 [AB24994] | 6.09
2 | O=C(C[n+]1ccc2c(c1)CCC(c1ccccc1)N2)c1ccc(C(F)(F)F)cc1 (centres unmarked) [AB27102] | 5.94
3 | O=C1c2ccc(OC(F)(F)F)cc2CCC1[n+]1ccc2c(c1)CCC(c1ccccc1)N2 (centres unmarked) [AB27105] | 6.06
4 | O=C1c2ccc(C(F)(F)F)cc2CCC1[n+]1ccc(NCc2ccccc2)cc1 (centres unmarked) [AB27110] | 6.00
5 | Cc1cccc(-c2c[nH]c3c[n+](CC(=O)c4ccc(OC(F)(F)F)cc4)ccc23)c1 [AB27121] | 5.65
6 | O=C1c2cc(Cl)ccc2CCC1[n+]1ccc2c(c1)CCC(c1ccccc1)N2 (centres unmarked) [AB27134] | 5.47
7 | O=C1c2cc(OC(F)(F)F)ccc2CCC1[n+]1cnc2c(c1)CCC(c1ccccc1)N2 (centres unmarked) [AB27136] | 5.25
8 | Cc1ccc2c(c1)C(=O)C([n+]1cnc3c(c1)CCC(c1ccccc1)N3)CC2 (centres unmarked) [AB27137] | 5.36
9 | O=C(C[n+]1ccc2c(c1)CCC(c1ccccc1)N2)c1cccc(C(F)(F)F)c1 (centres unmarked) [AB27146] | 5.77
10 | O=C(C[n+]1ccc2c(c1)CCC(c1ccccc1)N2)c1cccc(OC(F)(F)F)c1 (centres unmarked) [AB27147] | 5.86
11 | CCCn1ccc2c[n+](C3CCc4ccc(C(F)(F)F)cc4C3=O)ccc21 (centres unmarked) [AB27150] | 6.20
12 | CC(C)n1ccc2c[n+](C3CCc4ccc(C(F)(F)F)cc4C3=O)ccc21 (centres unmarked) [AB27151] | 5.98
13 | CC(C)n1ccc2c[n+](C3CCc4ccc(OC(F)(F)F)cc4C3=O)ccc21 (centres unmarked) [AB27157] | 5.81
14 | O=C(C[n+]1ccc(NCc2ccccc2)nc1)c1cccc(C(F)(F)F)c1 [AB27160] | 6.13
15 | Cc1ccc2c(c1)CCC([n+]1ccc3c(c1)c(C)cn3Cc1ccccc1)C2=O (centres unmarked) [AB27177] | 6.88
16 | Cc1ccc2c(c1)C(=O)C(n1ccc3c[n+](C(C)c4ccccc4)ccc31)CC2 (centres unmarked) [AB27180] | 7.80
17 | CC(c1ccccc1)c1cn(C)c2c[n+](C3CCc4ccc(Cl)cc4C3=O)ccc12 (centres unmarked) [AB27186] | 5.70

Row | Structure (SMILES) | pIC50
18 | CC(c1ccccc1)[n+]1ccc2c(ccn2C2CCc3ccsc3C2=O)c1 (centres unmarked) [AB27199] | 6.35
19 | Cc1nc2c(s1)C(=O)C(n1ccc3c[n+](C(C)c4ccccc4)ccc31)CC2 (centres unmarked) [AB27203] | 5.71
20 | Cc1nc2c(s1)C(=O)C([n+]1ccc3c(ccn3Cc3ccccc3)c1)CC2 (centres unmarked) [AB27204] | 5.46
21 | CC(c1ccccc1)[n+]1ccc2c(ccn2C2CCc3ccoc3C2=O)c1 (centres unmarked) [AB27205] | 5.55
22 | O=C1c2occc2CCC1[n+]1ccc2c(ccn2Cc2ccccc2)c1 (centres unmarked) [AB27206] | 5.59
23 | O=C1c2cc(Cl)ccc2CCC1[n+]1ccc2c(ccn2C(=O)c2ccccc2)c1 (centres unmarked) [AB27214] | 5.76
24 | O=C1c2cc(Cl)ccc2CCC1[n+]1ccc2c(ccn2S(=O)(=O)c2ccccc2)c1 (centres unmarked) [AB27215] | 5.79
25 | CCC(=O)N(Cc1ccccc1)c1cc[n+](CC(=O)c2ccc(C)cc2)cc1 [AB27232] | 6.54
26 | CCCC(=O)N(Cc1ccccc1)c1cc[n+](CC(=O)c2ccc(C)cc2)cc1 [AB27234] | 5.89
27 | Cc1ccc(C(=O)C[n+]2ccc(N(Cc3ccccc3)C(=O)C(C)C)cc2)cc1 [AB27235] | 6.75
28 | CCc1cc(NCc2ccccc2)cc[n+]1CC(=O)c1ccc(C)cc1 [AB27236] | 7.30
29 | Cc1ccc(C(=O)C[n+]2ccc(NCc3ccccc3)cc2C(C)C)cc1 [AB27237] | 7.41
30 | Cc1ccc(C(=O)C[n+]2ccc(NCc3ccccc3)cc2C2CC2)cc1 [AB27238] | 6.82
31 | Cc1ccc(C[n+]2ccc3c(ccn3C3CCc4ccc(Cl)cc4C3=O)c2)cc1 (centres unmarked) [AB27240] | 7.82
32 | Cc1cccc(C[n+]2ccc3c(ccn3C3CCc4ccc(Cl)cc4C3=O)c2)c1 (centres unmarked) [AB27241] | 7.85
33 | Cc1ccccc1C[n+]1ccc2c(ccn2C2CCc3ccc(Cl)cc3C2=O)c1 (centres unmarked) [AB27242] | 7.82
34 | O=C1c2cc(Cl)ccc2CCC1n1ccc2c[n+](Cc3ccccc3Cl)ccc21 (centres unmarked) [AB27243] | 7.82

Test system: ov-NNMT NCI-H82 cell
Experiment: Cell viability (Promega CellTiter-Glo, intracellular ATP), IC50 on NNMT-overexpressing NCI-H82 cell
Format: cell-based
Details: Homo sapiens; NCI-H82 cell overexpressing NNMT protein
Description: as §1, §2

Row | pIC50 | Structure (SMILES)
35 | 5.52 | Cc1ccc(C(=O)C[n+]2ccc3c(c2)CCN3c2ccccc2)cc1 [AB24994]
36 | 5.34 | O=C(C[n+]1ccc2c(c1)CCC(c1ccccc1)N2)c1ccc(C(F)(F)F)cc1 (centres unmarked) [AB27102]
37 | 5.27 | O=C1c2ccc(OC(F)(F)F)cc2CCC1[n+]1ccc2c(c1)CCC(c1ccccc1)N2 (centres unmarked) [AB27105]
38 | 5.30 | O=C1c2ccc(C(F)(F)F)cc2CCC1[n+]1ccc(NCc2ccccc2)cc1 (centres unmarked) [AB27110]
39 | 5.19 | Cc1cccc(-c2c[nH]c3c[n+](CC(=O)c4ccc(OC(F)(F)F)cc4)ccc23)c1 [AB27121]
40 | 4.91 | O=C1c2cc(Cl)ccc2CCC1[n+]1ccc2c(c1)CCC(c1ccccc1)N2 (centres unmarked) [AB27134]
41 | 4.84 | O=C1c2cc(OC(F)(F)F)ccc2CCC1[n+]1cnc2c(c1)CCC(c1ccccc1)N2 (centres unmarked) [AB27136]
42 | 4.92 | Cc1ccc2c(c1)C(=O)C([n+]1cnc3c(c1)CCC(c1ccccc1)N3)CC2 (centres unmarked) [AB27137]
43 | 5.17 | O=C(C[n+]1ccc2c(c1)CCC(c1ccccc1)N2)c1cccc(C(F)(F)F)c1 (centres unmarked) [AB27146]
44 | 5.26 | O=C(C[n+]1ccc2c(c1)CCC(c1ccccc1)N2)c1cccc(OC(F)(F)F)c1 (centres unmarked) [AB27147]
45 | 5.50 | CCCn1ccc2c[n+](C3CCc4ccc(C(F)(F)F)cc4C3=O)ccc21 (centres unmarked) [AB27150]
46 | 5.53 | CC(C)n1ccc2c[n+](C3CCc4ccc(C(F)(F)F)cc4C3=O)ccc21 (centres unmarked) [AB27151]
47 | 5.20 | CC(C)n1ccc2c[n+](C3CCc4ccc(OC(F)(F)F)cc4C3=O)ccc21 (centres unmarked) [AB27157]
48 | 5.26 | O=C(C[n+]1ccc(NCc2ccccc2)nc1)c1cccc(C(F)(F)F)c1 [AB27160]
49 | 5.73 | Cc1ccc2c(c1)CCC([n+]1ccc3c(c1)c(C)cn3Cc1ccccc1)C2=O (centres unmarked) [AB27177]
50 | 6.65 | Cc1ccc2c(c1)C(=O)C(n1ccc3c[n+](C(C)c4ccccc4)ccc31)CC2 (centres unmarked) [AB27180]
51 | 5.25 | CC(c1ccccc1)c1cn(C)c2c[n+](C3CCc4ccc(Cl)cc4C3=O)ccc12 (centres unmarked) [AB27186]

Row | pIC50 | Structure (SMILES)
52 | 5.32 | CC(c1ccccc1)[n+]1ccc2c(ccn2C2CCc3ccsc3C2=O)c1 (centres unmarked) [AB27199]
53 | 5.19 | Cc1nc2c(s1)C(=O)C(n1ccc3c[n+](C(C)c4ccccc4)ccc31)CC2 (centres unmarked) [AB27203]
54 | 4.87 | Cc1nc2c(s1)C(=O)C([n+]1ccc3c(ccn3Cc3ccccc3)c1)CC2 (centres unmarked) [AB27204]
55 | 5.02 | CC(c1ccccc1)[n+]1ccc2c(ccn2C2CCc3ccoc3C2=O)c1 (centres unmarked) [AB27205]
56 | 5.12 | O=C1c2occc2CCC1[n+]1ccc2c(ccn2Cc2ccccc2)c1 (centres unmarked) [AB27206]
57 | 5.17 | O=C1c2cc(Cl)ccc2CCC1[n+]1ccc2c(ccn2C(=O)c2ccccc2)c1 (centres unmarked) [AB27214]
58 | 4.97 | O=C1c2cc(Cl)ccc2CCC1[n+]1ccc2c(ccn2S(=O)(=O)c2ccccc2)c1 (centres unmarked) [AB27215]
59 | 5.52 | CCC(=O)N(Cc1ccccc1)c1cc[n+](CC(=O)c2ccc(C)cc2)cc1 [AB27232]
60 | 5.16 | CCCC(=O)N(Cc1ccccc1)c1cc[n+](CC(=O)c2ccc(C)cc2)cc1 [AB27234]
61 | 5.70 | Cc1ccc(C(=O)C[n+]2ccc(N(Cc3ccccc3)C(=O)C(C)C)cc2)cc1 [AB27235]
62 | 6.09 | CCc1cc(NCc2ccccc2)cc[n+]1CC(=O)c1ccc(C)cc1 [AB27236]
63 | 6.28 | Cc1ccc(C(=O)C[n+]2ccc(NCc3ccccc3)cc2C(C)C)cc1 [AB27237]
64 | 5.94 | Cc1ccc(C(=O)C[n+]2ccc(NCc3ccccc3)cc2C2CC2)cc1 [AB27238]
65 | 6.55 | Cc1ccc(C[n+]2ccc3c(ccn3C3CCc4ccc(Cl)cc4C3=O)c2)cc1 (centres unmarked) [AB27240]
66 | 6.74 | Cc1cccc(C[n+]2ccc3c(ccn3C3CCc4ccc(Cl)cc4C3=O)c2)c1 (centres unmarked) [AB27241]
67 | 6.69 | Cc1ccccc1C[n+]1ccc2c(ccn2C2CCc3ccc(Cl)cc3C2=O)c1 (centres unmarked) [AB27242]
68 | 6.74 | O=C1c2cc(Cl)ccc2CCC1n1ccc2c[n+](Cc3ccccc3Cl)ccc21 (centres unmarked) [AB27243]

From patent publication US20250214993A1, “AROMATIC RING COMPOUND AND USE THEREOF” (SHANGHAI SHIJIANG BIOTECHNOLOGY CO., LTD, priority 2022, published 2025)
